Key:
[1] = molecular target: T1, citrate synthase (CS) from porcine heart (Sus scrofa, UniProt P00889); assay: Conventional thermal shift assay, SYPRO DSF assay (DSF-TSA), CS-OAA binding; conditions: OAA present
T1 construct: citrate synthase (CS) from porcine heart (Millipore Sigma); purchased Millipore Sigma; host or cells: porcine heart
T1 sequence (P00889 28-464): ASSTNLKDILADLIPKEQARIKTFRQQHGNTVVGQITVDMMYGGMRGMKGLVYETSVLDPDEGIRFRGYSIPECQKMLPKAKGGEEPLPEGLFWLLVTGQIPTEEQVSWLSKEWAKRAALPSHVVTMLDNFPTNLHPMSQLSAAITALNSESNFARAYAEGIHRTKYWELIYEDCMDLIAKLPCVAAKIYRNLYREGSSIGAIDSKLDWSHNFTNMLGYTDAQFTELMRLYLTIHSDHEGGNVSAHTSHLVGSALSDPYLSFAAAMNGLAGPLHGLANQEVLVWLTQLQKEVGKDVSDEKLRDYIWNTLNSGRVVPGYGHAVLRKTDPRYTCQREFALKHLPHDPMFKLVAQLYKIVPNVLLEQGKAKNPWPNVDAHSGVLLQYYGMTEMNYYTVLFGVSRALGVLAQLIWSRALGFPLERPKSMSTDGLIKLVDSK
Procedure: In some embodiments, SAW-driven protein unfolding and concentration can be used for analysis of protein-ligand binding to analyze the melting temperature (Tm) and its shift (Δtm) upon protein-ligand binding. Gray intensity of the precipitated and concentrated proteins was measured and plotted as a function of SAW time in A-TSA. See, FIG. 5A. Two control conventional TSA methods were performed in parallel measuring the data using either a differential scanning fluorimetry (DSF) assay or a bicinchoninic acid (BCA) assay. DSF, the most popular C-TSA method, utilizes dye fluorescence as a measure of protein unfolding. Matulis et al., “Thermodynamic stability of carbonic anhydrase: measurements of binding affinity and stoichiometry using ThermoFluor” J. Biochemistry 44:5258-5266 (2005). On the other hand, BCA quantifies the amount of remaining soluble proteins after thermal unfolding. Brown et al., “Protein measurement using bicinchoninic acid: elimination of interfering substances” Anal. Biochem. 180:136-139 (1989).
SYPRO DSF assay: SYPRO Orange melting curves were collected using the 7900HT Fast Real-Time PCR System. […] To analyze melting curves, the fluorescence was normalized to the starting temperature and to no protein controls. The data was then scaled to interval (0,1) and then the replicates were averaged, and standard deviation calculated.

[2] = molecular target: T1, citrate synthase (CS) from porcine heart; assay: Acousto-thermal shift assay (A-TSA), CS-OAA binding; conditions: same SAW actuation (19.6 MHz, 3 Watts), CS 15 μM
Description: (§1) Specifically, two identical SAWs were generated by applying an AC (alternating current) signal to a pair of interdigital transducers (IDTs) deposited on the surface of a lithium niobate piezoelectric substrate. A standing SAW was formed within a 1×10 mm^2 polydimethylsiloxane (PDMS) microchannel. The microchannel was bonded on top of a substrate between these two IDTs. See, FIGS. 4A(i) and FIG. 4B. […] Most proteins rapidly precipitate and aggregate after their unfolding. See, FIG. 4A(ii).
(§2) Simultaneously, the standing SAW aggregates and concentrates precipitated protein along the acoustic pressure nodes and/or antinodes. See, FIG. 4A(iii). Gray intensity (Im) of the precipitated and aggregated proteins was analyzed and plotted as a function of SAW time, giving rise to a sigmoidal melting curve. See, FIG. 4A(iv). The melting time (Tm) was determined as the time point when half of proteins were unfolded (i.e. herein, a 50% change of gray intensity occurs where Im=(Imax+Imin)/2.). Using this simple analysis, the time shift Δτm between between two samples can be measured at a given SAW power and analyzed to compare conditions or ligands that stabilize or destabilize proteins. Overall, this new technique provides a rapid, simple and efficient workflow for analysis of changes in apparent melting curves. […]

[3] = molecular target: T1, citrate synthase (CS) from porcine heart; assay: Conventional thermal shift assay, BCA assay (BCA-TSA), CS-OAA binding
Procedure: (§3) In some embodiments, SAW-driven protein unfolding and concentration can be used for analysis of protein-ligand binding to analyze the melting temperature (Tm) and its shift (Δtm) upon protein-ligand binding. Gray intensity of the precipitated and concentrated proteins was measured and plotted as a function of SAW time in A-TSA. See, FIG. 5A. Two control conventional TSA methods were performed in parallel measuring the data using either a differential scanning fluorimetry (DSF) assay or a bicinchoninic acid (BCA) assay. DSF, the most popular C-TSA method, utilizes dye fluorescence as a measure of protein unfolding. Matulis et al., “Thermodynamic stability of carbonic anhydrase: measurements of binding affinity and stoichiometry using ThermoFluor” J. Biochemistry 44:5258-5266 (2005). On the other hand, BCA quantifies the amount of remaining soluble proteins after thermal unfolding. Brown et al., “Protein measurement using bicinchoninic acid: elimination of interfering substances” Anal. Biochem. 180:136-139 (1989). BCA assay: For thermal gradient profiling, a gradient program was created using a PTC-200 thermal cycler (MJ Research, Reno, N.V., USA) to cover the temperature points indicated in each figure. A PCR plate was prepared with 25 μL per well of recombinant protein or lysate and sealed (4titude Random Access, PN 4ti-0960/RA 96-well plate). […]

human hemoglobin (Hb) [4] = molecular target: T2, human hemoglobin (Hb) (Homo sapiens, UniProt P68871+P69905); assay: Acousto-thermal shift assay (A-TSA), Hb-Pal binding; conditions: SAW 19.6 MHz, 3 Watts, Hb 31 μM
T2 construct: purchased Millipore Sigma
Description: as §1, §2

human hemoglobin (Hb) [5] = molecular target: T2, human hemoglobin (Hb); assay: Conventional thermal shift assay, BCA assay (BCA-TSA), Hb-Pal binding
Procedure: as §3

T2 sequence (P69905 2-142 limits assumed): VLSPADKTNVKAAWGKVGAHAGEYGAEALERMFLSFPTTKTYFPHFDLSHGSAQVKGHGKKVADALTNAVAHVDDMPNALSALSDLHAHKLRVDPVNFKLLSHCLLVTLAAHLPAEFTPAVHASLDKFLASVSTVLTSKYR
T2 sequence (P68871 2-147 limits assumed): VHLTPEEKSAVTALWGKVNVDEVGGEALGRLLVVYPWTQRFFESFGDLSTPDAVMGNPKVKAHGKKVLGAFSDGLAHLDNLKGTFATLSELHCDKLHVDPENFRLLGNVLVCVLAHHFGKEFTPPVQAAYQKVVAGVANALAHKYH

Row | SMILES | tm shift of CS as detected in DSF assay [1] | increase of tm of CS (36.23 s) upon ligand binding ([2]; 1 mM OAA) | increase of tm of CS (36.23 s) upon ligand binding ([2]; 2 mM OAA) | increase of Tm of CS (60.3° C.) upon ligand binding ([3]; 1 mM OAA) | increase of Tm of CS (60.3° C.) upon ligand binding ([3]; 2 mM OAA) | reduction of melting time (Tm) of Hb (46.85 s) upon ligand binding (human hemoglobin (Hb) [4]; 0.62 mM Pal) | reduction of melting time (Tm) of Hb (46.85 s) upon ligand binding (human hemoglobin (Hb) [4]; 1.24 mM Pal) | decrease of Tm of Hb (59.1° C.) upon ligand binding (human hemoglobin (Hb) [5]; 0.62 mM Pal) | decrease of Tm of Hb (59.1° C.) upon ligand binding (human hemoglobin (Hb) [5]; 1.24 mM Pal)
1 | O=C(O)CC(=O)C(=O)O [OAA, oxaloacetic acid] | small and not statistically significant | 10.45 s | 15.77 s | 2.0 °C | 2.9 °C |  |  |  | 
2 | COc1cc2c(cc1OC)-c1cc3ccc(OC)c(OC)c3c[n+]1CC2 [Pal, palmatine chloride] |  |  |  |  |  | 3.52 s | 7.30 s | 0.7 °C | 1.1 °C

Source: patent publication US20220291235A1, “ACOUSTO-THERMAL SHIFT ASSAY FOR LABEL-FREE PROTEIN ANALYSIS” (THE REGENTS OF THE UNIVERSITY OF COLORADO - A BODY CORPORATE, priority 2019, published 2022)
